In test [1] the target is T1, cathepsin B (Homo sapiens, UniProt P07858). Put plainly: Sensitivity (limit of detection) of probes to detect cathepsin B, signal/noise vs enzyme concentration. The test is classed as biochemical. The conditions noted are these: for limit of detection (LOD) of cathepsin B: LOD = mean blank + 3×SD. The procedure:
(§1) The activity buffer contained: phosphate buffer 0.1M, 55 mM NaCl, 1 mM EDTA, 5 mM glutathione. All spectroscopic measurements were conducted in triplicates. The blank measurements for limit of detection calculation were repeated ten times. Limit of detection (LOD) was calculated as such: LOD=Meanblank+3×SD wherein SD—standard deviation.
The sensitivity of probe 4 to detect cathepsin B was measured and compared to that of a classic fluorescent probe (Z-Val-Cit-PABA-7HC) based on 7-hydroxy-coumarin To directly view the comparison between the two detection methods, signal/noise ratio using different cathepsin B concentrations was plotted against enzyme concentration using logarithmic scales (FIG. 4).

Test [2] concerns the target T1, cathepsin B. Put plainly: Chemiluminescence kinetic profile of probes with or without cathepsin B in activity buffer. The test is classed as biochemical. Particulars: probe 1 μM, activity buffer pH 7.4, 10% DMSO, 2.5 units/mL cathepsin B, room temperature. As to the method: FIGS. 1A-1C show the chemiluminescence kinetic profiles of probes 1, 2, 3 and 4 [1 μM] in activity buffer (pH 7.4, 10% DMSO) in the presence of 2.5 units/mL cathepsin B at room temperature (1A; the inset focuses on the kinetic profile of probe 1); the total light emitted from each probe (1B); and the maximal signal yielded by each probe (1C).
as §1
Next, chemiluminescence emission of the probes, as a function of time was measured, with or without the addition of cathepsin B. The kinetic profiles of the chemiluminescence signals and their relative total-photon emissions are shown in FIGS. 1A and 1B, respectively. […] From then on, a pattern of increased chemiluminescent signal is seen, correlating to the addendum change and the improved probe solubility in aqueous media. Evaluating the probes for forthcoming cell imaging required us to also assess the maximal signal yielded by each probe, as it will culminate in higher sensitivity and resolution (FIG. 1C). The maximal signal of the different probes pales in comparison to that of probe 4, making it the leading choice for further investigation. No light emission was observed from the probes in the absence of cathepsin B.

The subject of test [3] is CT26 tumor cells. The test can be described thus: Chemiluminescence microscopy imaging of cathepsin B activity in CT26 tumor cells. The test is classed as cell-based. Particulars: probe 5 μM, LV200 microscope, 20 min exposure. As to the method: (§2) Images were obtained following 30 min incubation with cell culture medium containing either probe 3 or probe 4 (5 μM), and were taken using the LV200 Olympus microscope using a 60× objective and 20 min exposure time. Chemiluminescence microscopy image and transmitted light image of […] cells incubated with probe 3 (a and b, respectively); Chemiluminescence microscopy image and transmitted light image of […] cells incubated with probe 4 (c and d, respectively); Chemiluminescence microscopy image and transmitted light image of CT26 cells incubated with probe 3 (e and f, respectively); Chemiluminescence microscopy image and transmitted light image of CT26 cells incubated with probe 4 (g and h, respectively); Chemiluminescence microscopy image and transmitted light image of 3T3 cells incubated with probe 3 (i and j, respectively); Chemiluminescence microscopy image and transmitted light image of 3T3 cells incubated with probe 4 (k and l, respectively).
(§3) Chemiluminescence images were acquired using Olympus LV200 inverted microscope fitted with an EMCCD camera (Hamamatsu C9100-13). […] For visualization of chemiluminescence emission, images were recorded with 20 minutes exposure times. […]

Test [4] addresses T1, cathepsin B. The test can be described thus: HPLC analysis of the enzymatic degradation of the probe by cathepsin B. It is filed as biochemical. The conditions noted are these: probe 10 μM, activity buffer pH 7.4, 10% DMSO, 2.5 U/mL cathepsin B. An excerpt:
To confirm the connection between the enzymatic degradation and chemiluminescent signal of the probes, HPLC was used to follow the enzymatic degradation of probe 4.

The subject of test [5] is 3T3 normal cells. Put plainly: Chemiluminescence microscopy imaging of cathepsin B activity in 3T3 normal cells. The test is classed as cell-based, mouse. Particulars: 3T3 cells, probe 5 μM, LV200 microscope, 20 min exposure. As to the method:
as §2, §3

The test system of test [6] is Raw 264.7 cells. Put plainly: Chemiluminescence microscopy imaging of cathepsin B activity in Raw 264.7 cells. The test is classed as cell-based, murine. Particulars: probe 5 μM, LV200 microscope, 20 min exposure. The procedure:
as §2, §3

Entries after “also recorded” stand apart in the source; their conditions may differ.

Consider `COC(=O)/C=C/c1ccc(C2(OC)OOC23C2CC4CC(C2)CC3C4)c(Cl)c1OCc1ccc(NC(=O)C(CCCNC(N)=O)NC(=O)C(NC(=O)CCCCCN2C(=O)CC(SC[C@@H](N)C(=O)NCC(=O)N[C@H](CCCCN)C(=O)N[C@H](CCCNC(=N)N)C(=O)N[C@H](CCCCN)C(=O)O)C2=O)C(C)C)cc1` (some centres unmarked) [Probe 4], for which the “limit of detection (LOD) of cathepsin B” value in test [1] (chemiluminescence) is 76.29 μU/mL. Moreover, the “superior sensitivity vs. fluorescent probe Z-Val-Cit-PABA-7HC” value in test [1] (ratio of LOD values) is on record as “more than 16,000 fold”. In addition, the “chemiluminescence emission (signal) upon addition of cathepsin B” value (shortened to “chemiluminescence emission”) in test [2] is recorded as “distinct increase in the chemiluminescent signal; also recorded: highest light emission”. The “chemiluminescence signal in cell imaging” value in test [3] is recorded as “imaged via the chemiluminescence signal”; in test [5], “no chemiluminescence signal was observed”; in test [6], “imaged via the chemiluminescence signal”. The “enzymatic degradation followed by HPLC” value in test [4] was “rapid enzymatic disassembly”.

As for `COCCOCCOCCOCCOCCOCCOCCOCCOCCOCCOCCOCCOCCOCCOCCOCCOCCOC(=O)NC(C(=O)NC(CCCNC(N)=O)C(=O)Nc1ccc(COc2c(/C=C/C(=O)OC)ccc(C3(OC)OOC34C3CC5CC(C3)CC4C5)c2Cl)cc1)C(C)C` (centres unmarked) [Probe 3], the “chemiluminescence emission” value in test [2] is reported as “distinct increase in the chemiluminescent signal; also recorded: highest light emission”. For the same compound, the “chemiluminescence signal in cell imaging” value in test [3], in test [5] and in test [6] was “no chemiluminescence signal” in each case.

For the compound `COC(=O)/C=C/c1ccc(C2(OC)OOC23C2CC4CC(C2)CC3C4)c(Cl)c1OCc1ccc(NC(=O)C(CCCNC(N)=O)NC(=O)C(NC(=O)OCc2ccccc2)C(C)C)cc1` (centres unmarked) [Probe 2], in test [2], the “chemiluminescence emission” value is on record as “distinct increase in the chemiluminescent signal”.

For the compound `COC1(c2cccc(OCc3ccc(NC(=O)C(CCCNC(N)=O)NC(=O)C(NC(=O)OCc4ccccc4)C(C)C)cc3)c2Cl)OOC12C1CC3CC(C1)CC2C3` (centres unmarked) [Probe 1], the “chemiluminescence emission” value in test [2] was “extremely weak emission”.

Take `CC(C)C(NC(=O)OCc1ccccc1)C(=O)NC(CCCNC(N)=O)C(=O)Nc1ccc(COc2ccc3ccc(=O)oc3c2)cc1` (stereo not drawn) [Z-Val-Cit-PABA-7HC, reference compound]: the “limit of detection (LOD) of cathepsin B” value in test [1] (fluorescence) is 1.25 U/mL.

Values taken from patent US12173350B2, “Chemiluminescent probes for imaging/detection of proteases” (RAMOT AT TEL-AVIV UNIVERSITY LTD., priority 2017, dated 2024).
